# Measured values from patent publication US20020042054A1, “Vigilance nucleic acids and related diagnostic, screening and therapeutic methods” (priority 1999, published 2002).
# Columns and labels:
# Drosophila [1] = type: in vivo, Drosophila melanogaster
# Description: In order to monitor fly behavior, five-day old virgin female Canton-S Drosophila melanogaster were cultured at 25° C., 50-60% humidity, 12 hr:12 hr light:dark cycle, on brewer's yeast, dark corn syrup and agar food, following procedures modified from J. Bennett and D. L. van Dyke, Dros. Inform. Serv. 46:160 (1971). Continuous, high-resolution measurement of fly behavior was achieved using an ultrasound activity monitoring system shown in FIG. 1A. Briefly, a 44 kHz standing wave was passed across an independent enclosure containing a single fly. An integrated circuit sampled a portion of each wave as a function of the transmit signal and compared it to the output from the receive signal for the same time-window. When the fly moved its mass within the field, it perturbed the standing wave and the resulting difference was counted as a movement. The output was sampled by a PC at 200 Hz, the data were summed in 2-sec bins and stored for later processing. This system detects very small movements in Drosophila's behavioral repertoire, including fine movements of the head, wings, and limbs.
# To monitor rest-activity patterns in large numbers of flies, an infrared Drosophila Activity Monitoring System was used (Trikinetics; described in M. Hamblen et al., J. Neurogen. 3:249 (1986)). To validate the system, flies were visually monitored for a total of 17.75 h (n=7). The number of times the fly crossed the infrared beam was counted in 5-minute bins.
# Drugs (caffeine or hydroxyzine) dissolved in food were continuously available to flies beginning in the final hour of the light period.
# The increase in rest was not associated with a general impairment of fly behavior. The activity per waking minute was unchanged during the dark period (both during the first hour and the subsequent hours). The total amount of activity during the light period was also unchanged. Furthermore, responsiveness to arousing stimuli was preserved.
# Drosophila [2] = assay: Responsiveness to arousing stimuli in flies given drug; set-up: species or system Drosophila melanogaster; details: in vivo
# Description: In order to determine whether periods of rest are associated with increased arousal thresholds, flies were subjected to vibratory stimuli of increasing intensity (0.05 g, 0.1 g, and 6 g). In these experiments, flies were placed in glass tubes (65 mm in length, 5 mm I.D.) maintained on a hard plastic platform above a Grass speaker. The output of the speaker was controlled via a Beckman signal generator and the resulting vibration of the platform was measured with an accelerometer. Each fly received a stimulus each hour (total of 8 stimuli) of constant intensity. The behavioral state at the time of stimulus delivery and the ensuing response were videotaped and scored off-line.
# Drosophila [3] = assay: Grooming control for validating the infrared system: dusting flies; type: in vivo, Drosophila melanogaster; details: flies dusted with the substance
# Description: Additional controls were used to validate the infrared system. […] It was determined that food deprivation for 1 day increased waking by 50% in Drosophila.
molecule,measurement,setting,value
Cn1c(=O)c2c(ncn2C)n(C)c1=O [caffeine],motor activity,"Drosophila [1]; drug in food from the final hour of the light period, n=36/dose",increased
same,amount of rest during the dark period,"Drosophila [1]; drug in food from the final hour of the light period, n=36/dose, p<0.0001, FIG. 3C",decreased in a dose-dependent fashion
OCCOCCN1CCN(C(c2ccccc2)c2ccc(Cl)cc2)CC1 (centres unmarked) [hydroxyzine],rest during the first hour of the dark period,"Drosophila [1]; drug in food from the final hour of the light period, n=40/dose, FIG. 3D",increased in a dose-dependent manner
same,latency to first dark period rest,"Drosophila [1]; drug in food from the final hour of the light period, n=40/dose, FIG. 3E",decreased
same,total amount of activity during the light period,Drosophila [1]; in vivo,unchanged
same,responsiveness to arousing stimuli,Drosophila [2],preserved
Reactive Yellow,increase in grooming behavior,Drosophila [3],72%
same,number of infrared crossings,Drosophila [3],did not reduce
